In patent US12318457B2, “Oligosaccharide linker, linker-payload comprising the same and glycan chain-remodeled antibody-drug conjugate, preparation methods and uses thereof” (GENEQUANTUM HEALTHCARE (SUZHOU) CO., LTD., priority 2022, dated 2025):
Like-named read-outs stand apart in the source and are kept apart here. Non-standard residues stand in square brackets, D forms with d. Residues, ends and D or L forms follow the SMILES beside them. *: point of attachment. Dolaproine = CO[C@@H]([C@@H]1CCCN1)[C@@H](C)C(=O)O; Dil = CC[C@H](C)[C@H](NC)[C@@H](CC(=O)O)OC; X1 = C[C@@H](N*)[C@@H](O)c1ccccc1; NMeV = CN[C@H](C(=O)O)C(C)C

Experiments:
Format in all cases: cell-based
[1] = test system: BxPC-3 (human pancreatic cancer cell); assay: Tumor cell proliferation inhibition, BxPC-3
Procedure: (§1) 1) ErbB2/HER2-positive human breast cancer cells BT-474, ErbB2/HER2-positive human gastric cancer cells NCI-N87 and ErbB2/HER2-negative human liver cancer cells HepG2 were inoculated into a 96-well cell plate at 100 μL/well (1000 to 10000 cells), and incubated overnight in a cell incubator under the conditions of 37° C., 5% CO2, 95% air and 100% humidity.
(§2) 3) The cell plate was removed from the 37° C. cell incubator, and equilibrated for about 30 min to rt. 100 μL of CellTiter Glo reagent was added into each well, a shaker shook for 2 min, followed by standing in a dark place at rt for 10 min, and the relative light unit (RLU) was measured with a Cytation 3 microplate reader.
(§3) For example, BxPC-3, FaDu, HepG2 and other human tumor cells were selected.
(§4) For example, TROP2-positive human tumor cells such as BxPC-3 (human pancreatic cancer cell) and FaDu (human throat cancer cell), and TROP2-negative tumor cells such as HepG2 (human liver cancer cell) were selected.

[2] = test system: ErbB2/HER2-positive human gastric cancer cells NCI-N87; assay: Tumor cell proliferation inhibition (CellTiter Glo), NCI-N87
Procedure: as §1, §2

[3] = test system: ErbB2/HER2-positive human breast cancer cells BT-474; assay: Tumor cell proliferation inhibition (CellTiter Glo), BT-474
Procedure: as §1, §2

[4] = test system: human liver cancer cells HepG2; assay: Tumor cell proliferation inhibition (CellTiter Glo), HepG2
Procedure: as §1, §2, §3, §4

[5] = test system: FaDu (human throat cancer cell); assay: Tumor cell proliferation inhibition, FaDu
Procedure: as §1, §2, §3, §4

Question: Which results are given for `CC[C@H](C)[C@@H]([C@@H](CC(=O)N1CCC[C@H]1[C@H](OC)[C@@H](C)C(=O)N[C@H](C)[C@@H](O)c1ccccc1)OC)N(C)C(=O)[C@@H](NC(=O)[C@@H](NC)C(C)C)C(C)C` [MMAE, monomethylauristatin E] (H-[NMeV]V[Dil][Dolaproine]-X1)?
Answer: maximum killing percentage relative to the control group ([1]; BxPC-3): 99.56%; IC50 ([1]; BxPC-3, TROP2-positive, Table 7, read-out: Proliferation Inhibition Action on Tumor Cells (IC50)): 0.388 nM; IC50 ([2]; NCI-N87, ErbB2/HER2-positive, 72 to 120 h, read-out: Proliferation Inhibition Effect on Tumor Cells (IC50)): 0.248 nM; maximum killing percentage relative to the control group ([2]; NCI-N87, control puromycin 5 μM): 90.78%; IC50 ([3]; BT-474, ErbB2/HER2-positive, 72 to 120 h, read-out: Proliferation Inhibition Effect on Tumor Cells (IC50)): 0.272 nM; maximum killing percentage relative to the control group ([3]; BT-474, control puromycin 5 μM): 86.46%; IC50 ([4]; HepG2, ErbB2/HER2-negative, 72 to 120 h, read-out: Proliferation Inhibition Effect on Tumor Cells (IC50)): 0.567 nM; maximum killing percentage relative to the control group ([4]; HepG2, ErbB2/HER2-negative, control puromycin 5 μM): 74.88%; maximum killing percentage relative to the control group ([4]; HepG2, TROP2-negative): 83.43%; IC50 ([4]; HepG2, TROP2-negative, Table 7, read-out: Proliferation Inhibition Action on Tumor Cells (IC50)): 0.398 nM; maximum killing percentage relative to the control group [5]: 90.87%; IC50 ([5]; TROP2-positive, Table 7, read-out: Proliferation Inhibition Action on Tumor Cells (IC50)): 0.167 nM
